Data as given in ChEMBL document CHEMBL3784933, “Synthesis and antitumor evaluation of trimethoxyanilides based on 4(3H)-quinazolinone scaffolds” (2016).

Tests used:
Assay type in all cases: functional
[1] = test system: CCRF-CEM; assay: Cytotoxicity against human CCRF-CEM cells assessed as growth inhibition at 10 uM after 48 hrs by SRB assay; details: read-out: GI
[2] = Cytotoxicity against human BT549 cells assessed as growth inhibition at 10 uM after 48 hrs by SRB assay; details: BT-549, 48 h, read-out: GI
[3] = test system: EKVX; assay: Cytotoxicity against human EKVX cells assessed as growth inhibition at 10 uM after 48 hrs by SRB assay; details: read-out: GI
[4] = Cytotoxicity against human LOXIMVI cells assessed as growth inhibition at 10 uM after 48 hrs by SRB assay; details: LOX IMVI, read-out: GI
[5] = test system: MDA-MB-231; assay: Cytotoxicity against human MDA-MB-231 cells assessed as growth inhibition at 10 uM after 48 hrs by SRB assay; details: MDA-MB-231, 48 h, read-out: GI
[6] = Cytotoxicity against human HOP62 cells assessed as growth inhibition at 10 uM after 48 hrs by SRB assay; details: HOP-62, 48 h, read-out: GI
[7] = test system: NCI-H522; assay: Cytotoxicity against human NCI-H522 cells assessed as growth inhibition at 10 uM after 48 hrs by SRB assay; details: NCI-H522, 48 h, read-out: GI
[8] = Cytotoxicity against human SNB75 cells assessed as growth inhibition at 10 uM after 48 hrs by SRB assay; details: SNB-75, 48 h, read-out: GI
[9] = Cytotoxicity against human UO31 cells assessed as growth inhibition at 10 uM after 48 hrs by SRB assay; details: UO-31, 48 h, read-out: GI
[10] = test system: T47D; assay: Cytotoxicity against human T47D cells assessed as growth inhibition at 10 uM after 48 hrs by SRB assay; details: read-out: GI
[11] = Cytotoxicity against human SF268 cells assessed as growth inhibition at 10 uM after 48 hrs by SRB assay; details: SF-268, 48 h, read-out: GI
[12] = Cytotoxicity against human PC3 cells assessed as growth inhibition at 10 uM after 48 hrs by SRB assay; details: PC-3, 48 h, read-out: GI
[13] = Cytotoxicity against human Caki1 cells assessed as growth inhibition at 10 uM after 48 hrs by SRB assay; details: CAKI-1, 48 h, read-out: GI
[14] = test system: A498; assay: Cytotoxicity against human A498 cells assessed as growth inhibition at 10 uM after 48 hrs by SRB assay; details: A498, 48 h, read-out: GI
[15] = Cytotoxicity against human SF295 cells assessed as growth inhibition at 10 uM after 48 hrs by SRB assay; details: SF-295, 48 h, read-out: GI
[16] = Cytotoxicity against human NCI-ADR-RES cells assessed as growth inhibition at 10 uM after 48 hrs by SRB assay; details: read-out: GI
[17] = test system: SK-MEL-5; assay: Cytotoxicity against human SK-MEL-5 cells assessed as growth inhibition at 10 uM after 48 hrs by SRB assay; details: SK-MEL-5, 48 h, read-out: GI
[18] = test system: Malme-3M; assay: Cytotoxicity against human MALME-3M cells assessed as growth inhibition at 10 uM after 48 hrs by SRB assay; details: read-out: GI
[19] = Cytotoxicity against human OVCAR4 cells assessed as growth inhibition at 10 uM after 48 hrs by SRB assay; details: OVCAR-4, 48 h, read-out: GI
[20] = Cytotoxicity against human Hs 578T cells assessed as growth inhibition at 10 uM after 48 hrs by SRB assay; details: read-out: GI
[21] = test system: A549; assay: Cytotoxicity against human A549 cells assessed as growth inhibition at 10 uM after 48 hrs by SRB assay; details: A549, 48 h, read-out: GI
[22] = Cytotoxicity against human UACC62 cells assessed as growth inhibition at 10 uM after 48 hrs by SRB assay; details: UACC-62, 48 h, read-out: GI
[23] = test system: SR; assay: Cytotoxicity against human SR cells assessed as growth inhibition at 10 uM after 48 hrs by SRB assay; details: read-out: GI
[24] = Cytotoxicity against human RPMI8226 cells assessed as growth inhibition at 10 uM after 48 hrs by SRB assay; details: RPMI-8226, 48 h, read-out: GI
[25] = Cytotoxicity against human HOP92 cells assessed as growth inhibition at 10 uM after 48 hrs by SRB assay; details: HOP-92, 48 h, read-out: GI
[26] = test system: K562; assay: Cytotoxicity against human K562 cells assessed as growth inhibition at 10 uM after 48 hrs by SRB assay; details: K562, 48 h, read-out: GI
[27] = test system: NCI-H23; assay: Cytotoxicity against human NCI-H23 cells assessed as growth inhibition at 10 uM after 48 hrs by SRB assay; details: NCI-H23, 48 h, read-out: GI
[28] = Cytotoxicity against human MOLT4 cells assessed as growth inhibition at 10 uM after 48 hrs by SRB assay; details: MOLT-4, 48 h, read-out: GI
[29] = test system: NCI-H226; assay: Cytotoxicity against human NCI-H226 cells assessed as growth inhibition at 10 uM after 48 hrs by SRB assay; details: NCI-H226, 48 h, read-out: GI
[30] = Cytotoxicity against human RXF393 cells assessed as growth inhibition at 10 uM after 48 hrs by SRB assay; details: RXF 393, 48 h, read-out: GI
[31] = test system: ACHN; assay: Cytotoxicity against human ACHN cells assessed as growth inhibition at 10 uM after 48 hrs by SRB assay; details: read-out: GI
[32] = test system: U-251; assay: Cytotoxicity against human U251 cells assessed as growth inhibition at 10 uM after 48 hrs by SRB assay; details: U-251, 48 h, read-out: GI
[33] = Cytotoxicity against human UACC257 cells assessed as growth inhibition at 10 uM after 48 hrs by SRB assay; details: UACC-257, 48 h, read-out: GI
[34] = Cytotoxicity against human SF539 cells assessed as growth inhibition at 10 uM after 48 hrs by SRB assay; details: SF-539, 48 h, read-out: GI
[35] = test system: SN12C; assay: Cytotoxicity against human SN12C cells assessed as growth inhibition at 10 uM after 48 hrs by SRB assay; details: read-out: GI
[36] = Cytotoxicity against human NCI-H322 cells assessed as growth inhibition at 10 uM after 48 hrs by SRB assay; details: NCI-H322, 48 h, read-out: GI
[37] = test system: 786-0; assay: Cytotoxicity against human 786-0 cells assessed as growth inhibition at 10 uM after 48 hrs by SRB assay; details: 786-0, 48 h, read-out: GI
[38] = test system: MCF7; assay: Cytotoxicity against human MCF7 cells assessed as growth inhibition at 10 uM after 48 hrs by SRB assay; details: MCF7, 48 h, read-out: GI
[39] = Cytotoxicity against human SNB19 cells assessed as growth inhibition at 10 uM after 48 hrs by SRB assay; details: SNB-19, 48 h, read-out: GI
[40] = Cytotoxicity against human HCT15 cells assessed as growth inhibition at 10 uM after 48 hrs by SRB assay; details: HCT-15, 48 h, read-out: GI
[41] = Cytotoxicity against human HCT116 cells assessed as growth inhibition at 10 uM after 48 hrs by SRB assay; details: HCT-116, 48 h, read-out: GI
[42] = test system: MDA-MB-468; assay: Cytotoxicity against human MDA-MB-468 cells assessed as growth inhibition at 10 uM after 48 hrs by SRB assay; details: MDA-MB-468, 48 h, read-out: GI

Row | SMILES | inhibition of growth at 10 µM [1] [%] | inhibition of growth at 10 µM [3] [%] | inhibition of growth at 10 µM [4] [%] | inhibition of growth at 10 µM [5] [%] | inhibition of growth at 10 µM [6] [%] | inhibition of growth at 10 µM [7] [%] | inhibition of growth at 10 µM [8] [%] | inhibition of growth at 10 µM [9] [%] | inhibition of growth at 10 µM [10] [%] | inhibition of growth at 10 µM [12] [%] | inhibition of growth at 10 µM [13] [%] | inhibition of growth at 10 µM [14] [%] | inhibition of growth at 10 µM [17] [%] | inhibition of growth at 10 µM [19] [%] | inhibition of growth at 10 µM [20] [%] | inhibition of growth at 10 µM [21] [%] | inhibition of growth at 10 µM [22] [%] | inhibition of growth at 10 µM [23] [%] | inhibition of growth at 10 µM [24] [%] | inhibition of growth at 10 µM [26] [%] | other results
1 | COc1cc(NC(=O)CSc2nc3ccc(Cl)cc3c(=O)n2-c2ccccc2)cc(OC)c1OC | 30 | 24 | 10 | 17 | 15 | 16 | 29 | 50 | 15 | 20 | 17 | 54 | 17 | 15 | 19 | 12 | 25 |  |  |  | inhibition of growth at 10 µM [2]: 22%; inhibition of growth at 10 µM [11]: 10%; inhibition of growth at 10 µM [15]: 13%; inhibition of growth at 10 µM [16]: 10%; inhibition of growth at 10 µM [18]: 12%
2 | COc1cc2nc(SCC(=O)Nc3cc(OC)c(OC)c(OC)c3)n(-c3ccc(F)cc3)c(=O)c2cc1OC | 15 |  | 14 |  |  | 15 |  | 38 | 20 |  |  |  |  |  |  |  | 18 |  |  |  | 
3 | COc1cc(NC(=O)CCSc2nc3ccc(Cl)cc3c(=O)n2-c2ccccc2)cc(OC)c1OC |  |  |  | 10 |  |  | 21 |  |  |  |  | 22 |  | 15 |  |  |  | 18 |  |  | 
4 | COc1cc(NC(=O)CSc2nc3ccccc3c(=O)n2-c2ccc(F)cc2)cc(OC)c1OC |  | 13 | 10 | 24 |  | 19 | 10 | 42 | 23 |  | 12 | 72 | 11 |  | 10 |  | 19 |  | 14 | 14 | inhibition of growth at 10 µM [25]: 43%; inhibition of growth at 10 µM [11]: 10%; inhibition of growth at 10 µM [27]: 10%; inhibition of growth at 10 µM [28]: 18%
5 | COc1cc(NC(=O)CSc2nc3ccccc3c(=O)n2-c2ccccc2)cc(OC)c1OC | 22 | 24 |  | 23 | 12 | 11 | 27 | 48 | 18 | 15 | 20 | 54 | 16 | 12 | 14 |  | 19 |  |  |  | inhibition of growth at 10 µM [29]: 23%; inhibition of growth at 10 µM [18]: 11%; inhibition of growth at 10 µM [30]: 12%; inhibition of growth at 10 µM [31]: 11%
6 | COc1cc2nc(SCCC(=O)Nc3cc(OC)c(OC)c(OC)c3)n(-c3ccccc3)c(=O)c2cc1OC |  |  |  | 14 |  | 15 | 39 | 25 | 14 | 18 | 12 |  |  |  |  | 14 |  | 13 | 25 |  | 
7 | COc1cc2nc(SCCC(=O)Nc3cc(OC)c(OC)c(OC)c3)n(-c3ccc(F)cc3)c(=O)c2cc1OC |  |  |  |  | 11 |  |  |  |  |  |  | 22 |  |  |  |  |  |  |  | 11 | inhibition of growth at 10 µM [25]: 13%; inhibition of growth at 10 µM [32]: 12%
8 | COc1cc(NC(=O)CCSc2nc3ccc(Cl)cc3c(=O)n2-c2ccc(F)cc2)cc(OC)c1OC | 24 |  | 24 | 42 |  | 55 | 59 | 51 | 27 | 51 | 34 | 88 | 20 |  | 34 | 28 | 22 | 23 | 47 | 22 | inhibition of growth at 10 µM [33]: 25%; inhibition of growth at 10 µM [34]: 10%; inhibition of growth at 10 µM [2]: 12%; inhibition of growth at 10 µM [35]: 18%; inhibition of growth at 10 µM [36]: 16%; inhibition of growth at 10 µM [11]: 19%; inhibition of growth at 10 µM [28]: 28%; inhibition of growth at 10 µM [37]: 19%; inhibition of growth at 10 µM [38]: 21%; inhibition of growth at 10 µM [15]: 30%; inhibition of growth at 10 µM [39]: 15%; inhibition of growth at 10 µM [40]: 16%; inhibition of growth at 10 µM [29]: 18%; inhibition of growth at 10 µM [41]: 13%; inhibition of growth at 10 µM [30]: 25%; inhibition of growth at 10 µM [42]: 17%; inhibition of growth at 10 µM [32]: 16%; inhibition of growth at 10 µM [31]: 21%
9 | COc1cc(NC(=O)CCSc2nc3ccccc3c(=O)n2-c2ccccc2)cc(OC)c1OC | 19 |  | 10 | 41 |  | 49 |  | 44 | 23 | 39 | 22 | 46 |  | 24 |  | 15 | 17 | 17 | 36 | 31 | inhibition of growth at 10 µM [35]: 18%; inhibition of growth at 10 µM [28]: 15%; inhibition of growth at 10 µM [38]: 16%; inhibition of growth at 10 µM [15]: 13%; inhibition of growth at 10 µM [32]: 10%; inhibition of growth at 10 µM [31]: 18%
